Source: patent US20200024246A1, “POGOSTONE DERIVATIVES AND METHODS OF USING THE SAME” (Hamyard Associates LLC, priority 2018, published 2020)
Entries after “also recorded” stand apart in the source; their conditions may differ. Read-outs that look alike come from different tables or passages of the source.

Experiments:
[1] = tested on: adult, female mosquitoes; assay: Topical application on adult female mosquitoes (24-h mortality, 1-h knockdown); format: in vivo, mosquito; conditions: for ED50: read-out: KD50 (ug/g mosquito); for LD50: read-out: LD50 (ug/g mosquito)
[2] = tested on: adult female mosquitoes; assay: whole plant or invertebrate; conditions: for Percent Knockdown at 1 Hour / Percent Mortality: mosquitoes; for Percent Knockdown at 1 Hour: 0.5% solutions; for Percent Mortality: 24 hours; for ranking in knockdown and mortality screenings: words; for pest or weed control at 0.5 % / pest or weed control at 1.5 % / mortality at 0.5 % / mortality at 1.5 %: Culicidae; for pest or weed control at 0.5 % / pest or weed control at 1.5 %: 1 h; for pest or weed control at 0.5 %: read-out: Knockdown at 0.5%; for pest or weed control at 1.5 %: read-out: Knockdown at 1.5%; for mortality at 0.5 %: read-out: Mortality at 0.5%; for mortality at 1.5 %: read-out: Mortality at 1.5%
Experimental: The first group of DHAA-based derivatives that were tested included Formula A2, Formula B3, Formula C3, and Formula D3. A solution of 0.5% or 1.5% of each of these compounds was applied to the mosquitoes, as described above. […] Acetone was used as a control.

[3] = Mosquito Knockdown Properties (1 hour), topical application
[4] = Mosquito Toxicity (24 hours), topical application to pronotum

| SMILES | pest or weed control at 0.5 % ([2]; topical) | pest or weed control at 1.5 % ([2]; topical) | mortality at 0.5 % ([2]; topical, 24 h) | mortality at 1.5 % ([2]; topical, 24 h) | further results |
| --- | --- | --- | --- | --- | --- |
| Cc1ccc2oc(=O)c(C(=O)CCC(C)C)c(O)c2c1 [Formula 21] |  |  |  |  | ED50 ([1]; topical, 1 h): > 1500 mg/kg; LD50 ([1]; topical, 24 h): 534 mg/kg |
| CCOC(=O)/C(O)=C/C(=O)c1c(O)cc(C)oc1=O [Formula 8] |  |  |  |  | ED50 [1, 3]: > 1500 mg/kg; LD50 [1, 4]: > 1500 mg/kg |
| Cc1cc(O)c(C(=O)COC(C)C)c(=O)o1 [Formula C3] |  |  |  |  | Percent Knockdown at 1 Hour [2]: 98%; Percent Mortality ([2]; at 0.5%): 89%; Percent Mortality ([2]; at 1.5%): 88%; LD50 ([2]; topical, 24 h, read-out: 24-hour Mortality LD50 (μg/g mosquito)): 183 mg/kg; ranking in knockdown and mortality screenings [2]: performed the best in terms of highest percent knockdown and mortality; also recorded: performed the best in the initial knockdown and mortality screenings |
| Cc1ccc(C(C)C)c(O)c1 [Thymol, reference compound] |  |  |  |  | ED50 [1, 3]: 1700 mg/kg |
| CC(C)C(=O)c1c(O)c2cc(Cl)ccc2oc1=O [Formula 34] |  |  |  |  | ED50 [1, 3]: > 1500 mg/kg; LD50 [1, 4]: 111 mg/kg; insecticidal properties compared with natural pogostone, natural pyrethrins or terpenoids ([1]; words, refers to Table 1): possessed better insecticidal properties than natural pogostone |
| Cc1cc(O)c(C(=O)CC(O)C2CCCCC2)c(=O)o1 (stereo not drawn) [Formula C15] | 23% | 50% | 33% | 63% | ranking in knockdown and mortality screenings [2]: appear to be the most potent insecticidal compounds |
| CCCCCCCCCC(=O)c1c(O)c2ccccc2n(C)c1=O [Formula 20] |  |  |  |  | LD50 ([1]; topical, 24 h): > 1500 mg/kg |
| Cc1cc2occ(CC(C)C)c(=O)c2c(=O)o1 [Formula C22] | 10% | 10% | 7% | 13% |  |
| Cc1cc(O)c(C(=O)CCC=O)c(=O)o1 [Formula C18] | 3% | 0% | 3% | 7% |  |
| CCCCC(CC)CNC(=O)c1c(O)cc(C)oc1=O (stereo not drawn) [Formula B3] |  |  |  |  | Percent Knockdown at 1 Hour [2]: 2%; Percent Mortality ([2]; at 0.5%): 9%; Percent Mortality ([2]; at 1.5%): 16% |
| CC(=O)CCC(=O)c1c(O)cc(C)oc1=O [Formula C17] | 27% | 13% | 47% | 7% |  |
| CC(C)CCC(=O)C1C(=O)N(C)C(=O)N(C)C1=O [Formula C24] | 93% | 100% | 97% | 97% | ranking in knockdown and mortality screenings [2]: appear to be the most potent insecticidal compounds |
| Cc1cc2c(c(=O)o1)C(=O)CC(C(C)C)O2 (stereo not drawn) [Formula C16] | 0% | 7% | 3% | 3% |  |
| Cc1cc(O)c(C(=O)/C=C/C(C)(C)C)c(=O)o1 [Formula C21] | 3% | 7% | 0% | 0% |  |
| Cc1cc(O)c(C(=O)COCC(=O)O)c(=O)o1 [Formula C14] | 7% | 0% | 13% | 40% |  |
| Cc1cc(O)c(C(=O)Nc2ccccc2)c(=O)o1 [Formula A3] |  |  |  |  | Percent Knockdown at 1 Hour [2]: 4%; Percent Mortality ([2]; at 0.5%): 5%; Percent Mortality ([2]; at 1.5%): 19% |
| C=CCCC(=O)c1c(O)cc(C)oc1=O [Formula C26] | 100% | 97% | 100% | 100% | ranking in knockdown and mortality screenings [2]: appear to be the most potent insecticidal compounds |
| CC(C)C(O)CC(=O)c1c(O)c2ccccc2oc1=O (stereo not drawn) [Formula C25] | 93% | 100% | 100% | 100% | ranking in knockdown and mortality screenings [2]: appear to be the most potent insecticidal compounds |
| Cc1cc(O)c(C(=O)CCC(O)CBr)c(=O)o1 (stereo not drawn) [Formula C20] | 17% | 10% | 10% | 20% |  |
| CC(=O)c1c(O)c2ccccc2oc1=O [Formula C27] | 100% | 73% | 97% | 83% |  |
